Test results taken from patent US10231954B2, “Neurodegenerative therapies” (LYTIX BIOPHARMA AS, priority 2014, dated 2019).

Experiments:
[1] = biological target: HER4 (Homo sapiens, UniProt Q15303); test: Kinase profiling HER4; format: biochemical; details: 100 micromolar inhibitor concentration, 100 is no change
From the text: (§1) Any value less that 25 is considered to be highly significant inhibition.

[2] = biological target: MSK1 (Homo sapiens, UniProt O75582); test: Kinase profiling MSK1; format: biochemical; details: 100 micromolar inhibitor concentration, 100 is no change
From the text: as §1

[3] = biological target: HIPK2 (Homo sapiens, UniProt Q9H2X6); test: Kinase profiling HIPK2; format: biochemical; details: 100 micromolar inhibitor concentration, 100 is no change
Sequence of HIPK2 (Q9H2X6 whole entry, species assumed): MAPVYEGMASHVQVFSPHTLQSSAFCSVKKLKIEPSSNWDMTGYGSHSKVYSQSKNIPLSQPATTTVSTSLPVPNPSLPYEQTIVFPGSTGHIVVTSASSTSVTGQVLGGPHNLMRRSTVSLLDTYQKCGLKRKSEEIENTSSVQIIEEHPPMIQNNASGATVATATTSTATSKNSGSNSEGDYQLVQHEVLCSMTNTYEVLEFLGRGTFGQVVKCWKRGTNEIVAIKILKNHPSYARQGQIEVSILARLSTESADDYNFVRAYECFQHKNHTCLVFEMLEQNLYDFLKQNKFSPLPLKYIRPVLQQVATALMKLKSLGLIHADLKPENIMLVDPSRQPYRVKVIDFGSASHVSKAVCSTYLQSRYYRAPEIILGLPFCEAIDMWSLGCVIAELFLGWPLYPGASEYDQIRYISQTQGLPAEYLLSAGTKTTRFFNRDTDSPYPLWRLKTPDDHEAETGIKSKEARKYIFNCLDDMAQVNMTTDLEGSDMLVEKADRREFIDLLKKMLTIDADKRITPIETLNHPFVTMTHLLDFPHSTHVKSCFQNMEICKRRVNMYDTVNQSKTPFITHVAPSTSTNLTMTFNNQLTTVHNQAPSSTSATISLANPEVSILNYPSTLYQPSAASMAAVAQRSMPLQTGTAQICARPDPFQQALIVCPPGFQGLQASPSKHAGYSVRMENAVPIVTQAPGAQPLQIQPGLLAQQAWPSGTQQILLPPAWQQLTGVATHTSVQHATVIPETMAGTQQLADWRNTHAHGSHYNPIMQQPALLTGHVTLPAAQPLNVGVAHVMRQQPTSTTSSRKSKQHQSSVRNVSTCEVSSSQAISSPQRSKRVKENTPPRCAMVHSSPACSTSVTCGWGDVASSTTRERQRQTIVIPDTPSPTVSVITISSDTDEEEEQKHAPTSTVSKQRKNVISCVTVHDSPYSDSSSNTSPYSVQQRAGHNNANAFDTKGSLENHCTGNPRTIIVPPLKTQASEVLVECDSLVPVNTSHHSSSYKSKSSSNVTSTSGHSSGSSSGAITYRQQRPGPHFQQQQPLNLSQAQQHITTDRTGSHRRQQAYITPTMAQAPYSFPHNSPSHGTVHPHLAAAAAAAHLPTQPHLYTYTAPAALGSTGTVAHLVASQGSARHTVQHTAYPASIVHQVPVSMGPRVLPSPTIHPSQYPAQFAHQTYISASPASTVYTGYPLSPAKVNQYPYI
From the text: as §1

[4] = biological target: JAK2 (Homo sapiens, UniProt O60674); test: Kinase profiling JAK2; format: biochemical; details: 100 micromolar inhibitor concentration, 100 is no change
Sequence of JAK2 (O60674 whole entry, species assumed): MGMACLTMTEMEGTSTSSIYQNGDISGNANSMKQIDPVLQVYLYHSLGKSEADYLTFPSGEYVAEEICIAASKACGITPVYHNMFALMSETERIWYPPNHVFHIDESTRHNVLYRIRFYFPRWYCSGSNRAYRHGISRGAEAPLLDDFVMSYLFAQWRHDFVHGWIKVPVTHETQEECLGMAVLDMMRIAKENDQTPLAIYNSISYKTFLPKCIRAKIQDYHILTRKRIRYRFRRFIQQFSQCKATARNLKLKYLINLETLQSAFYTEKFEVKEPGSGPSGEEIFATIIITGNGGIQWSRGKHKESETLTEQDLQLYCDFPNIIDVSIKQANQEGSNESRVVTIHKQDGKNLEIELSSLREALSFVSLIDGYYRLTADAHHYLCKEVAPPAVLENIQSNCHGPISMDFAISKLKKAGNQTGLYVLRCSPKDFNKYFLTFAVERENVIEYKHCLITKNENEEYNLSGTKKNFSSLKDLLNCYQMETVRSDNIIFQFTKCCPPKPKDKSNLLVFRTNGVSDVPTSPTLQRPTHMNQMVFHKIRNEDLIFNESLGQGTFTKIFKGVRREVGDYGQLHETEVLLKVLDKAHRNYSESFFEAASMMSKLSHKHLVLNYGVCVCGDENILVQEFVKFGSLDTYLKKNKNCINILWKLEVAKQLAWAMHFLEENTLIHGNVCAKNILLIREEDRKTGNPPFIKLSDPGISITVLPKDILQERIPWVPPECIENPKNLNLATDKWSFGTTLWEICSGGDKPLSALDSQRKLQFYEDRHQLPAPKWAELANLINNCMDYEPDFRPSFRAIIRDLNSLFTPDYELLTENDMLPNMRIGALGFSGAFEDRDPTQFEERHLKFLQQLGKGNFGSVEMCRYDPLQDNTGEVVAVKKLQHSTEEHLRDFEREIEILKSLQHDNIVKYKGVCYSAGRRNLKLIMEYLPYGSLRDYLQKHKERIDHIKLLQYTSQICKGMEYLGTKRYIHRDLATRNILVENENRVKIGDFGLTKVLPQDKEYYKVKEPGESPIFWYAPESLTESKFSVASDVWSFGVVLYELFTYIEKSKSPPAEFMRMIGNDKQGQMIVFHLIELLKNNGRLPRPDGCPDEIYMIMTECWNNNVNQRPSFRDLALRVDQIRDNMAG
From the text: as §1

[5] = biological target: PIM1 (Homo sapiens, UniProt P11309); test: Kinase profiling PIM1; format: biochemical; details: 100 micromolar inhibitor concentration, 100 is no change
From the text: as §1

[6] = biological target: NEK6 (Homo sapiens, UniProt Q9HC98); test: Kinase profiling NEK6; format: biochemical; details: 100 micromolar inhibitor concentration, 100 is no change
From the text: as §1

[7] = biological target: PKCγ (Homo sapiens, UniProt P05129); test: Kinase profiling PKCγ; format: biochemical; details: 100 micromolar inhibitor concentration, 100 is no change
From the text: as §1

[8] = biological target: MLK3 (Homo sapiens, UniProt Q16584); test: Kinase profiling MLK3; format: biochemical; details: 100 micromolar inhibitor concentration, 100 is no change
From the text: as §1

[9] = biological target: S6K1 (Homo sapiens, UniProt P23443); test: Kinase profiling S6K1; format: biochemical; details: 100 micromolar inhibitor concentration, 100 is no change
Sequence of S6K1 (P23443 whole entry, species assumed): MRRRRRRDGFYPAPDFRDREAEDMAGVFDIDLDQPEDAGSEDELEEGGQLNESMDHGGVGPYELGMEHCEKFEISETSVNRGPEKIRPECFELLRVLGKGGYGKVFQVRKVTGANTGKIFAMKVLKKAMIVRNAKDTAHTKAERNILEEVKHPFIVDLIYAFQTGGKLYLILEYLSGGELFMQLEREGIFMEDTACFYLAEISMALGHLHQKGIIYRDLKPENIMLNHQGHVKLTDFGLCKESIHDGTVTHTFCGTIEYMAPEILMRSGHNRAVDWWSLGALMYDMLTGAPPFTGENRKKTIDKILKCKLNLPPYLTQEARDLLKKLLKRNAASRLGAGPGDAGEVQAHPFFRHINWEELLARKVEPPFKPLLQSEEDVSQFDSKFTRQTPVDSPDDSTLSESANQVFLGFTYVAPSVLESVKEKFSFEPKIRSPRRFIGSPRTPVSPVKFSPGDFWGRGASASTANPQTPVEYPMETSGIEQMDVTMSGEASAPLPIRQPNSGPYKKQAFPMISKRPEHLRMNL
From the text: as §1

[10] = biological target: JNK1 (Homo sapiens, UniProt P45983); test: Kinase profiling JNK1; format: biochemical; details: 100 micromolar inhibitor concentration, 100 is no change
From the text: as §1

[11] = biological target: PKBa (Homo sapiens, UniProt P31749); test: Kinase profiling PKBa; format: biochemical; details: for residual kinase activity, PKBa: 100 micromolar inhibitor concentration, 100 is no change
From the text: as §1

[12] = biological target: TrkA (Homo sapiens, UniProt P04629); test: Kinase profiling TrkA; format: biochemical; details: 100 micromolar inhibitor concentration, 100 is no change
Sequence of TrkA (P04629 33-796, species assumed): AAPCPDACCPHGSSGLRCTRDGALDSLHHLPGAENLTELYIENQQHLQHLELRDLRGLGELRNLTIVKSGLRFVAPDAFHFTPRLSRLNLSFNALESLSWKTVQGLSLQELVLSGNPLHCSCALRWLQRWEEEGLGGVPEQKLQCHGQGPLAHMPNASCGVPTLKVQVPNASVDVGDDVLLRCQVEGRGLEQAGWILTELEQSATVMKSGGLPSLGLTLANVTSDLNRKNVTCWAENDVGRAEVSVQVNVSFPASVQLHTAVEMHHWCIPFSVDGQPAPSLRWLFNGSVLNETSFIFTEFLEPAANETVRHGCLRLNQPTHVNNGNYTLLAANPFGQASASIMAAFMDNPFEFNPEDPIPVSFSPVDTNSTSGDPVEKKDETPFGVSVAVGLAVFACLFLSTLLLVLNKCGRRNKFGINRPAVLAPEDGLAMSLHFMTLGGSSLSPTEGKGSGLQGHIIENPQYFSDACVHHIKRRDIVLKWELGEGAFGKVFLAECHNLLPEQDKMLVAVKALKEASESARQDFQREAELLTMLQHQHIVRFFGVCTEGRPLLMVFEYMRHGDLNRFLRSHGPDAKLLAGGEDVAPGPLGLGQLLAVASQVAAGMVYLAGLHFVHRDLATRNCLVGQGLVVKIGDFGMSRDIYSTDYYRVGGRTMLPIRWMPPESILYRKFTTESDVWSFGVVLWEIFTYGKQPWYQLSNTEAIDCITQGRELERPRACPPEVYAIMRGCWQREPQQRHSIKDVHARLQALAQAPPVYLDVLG
From the text: as §1

[13] = biological target: SRPK1 (Homo sapiens, UniProt Q96SB4); test: Kinase profiling SRPK1; format: biochemical; details: 100 micromolar inhibitor concentration, 100 is no change
Sequence of SRPK1 (Q96SB4 whole entry, species assumed): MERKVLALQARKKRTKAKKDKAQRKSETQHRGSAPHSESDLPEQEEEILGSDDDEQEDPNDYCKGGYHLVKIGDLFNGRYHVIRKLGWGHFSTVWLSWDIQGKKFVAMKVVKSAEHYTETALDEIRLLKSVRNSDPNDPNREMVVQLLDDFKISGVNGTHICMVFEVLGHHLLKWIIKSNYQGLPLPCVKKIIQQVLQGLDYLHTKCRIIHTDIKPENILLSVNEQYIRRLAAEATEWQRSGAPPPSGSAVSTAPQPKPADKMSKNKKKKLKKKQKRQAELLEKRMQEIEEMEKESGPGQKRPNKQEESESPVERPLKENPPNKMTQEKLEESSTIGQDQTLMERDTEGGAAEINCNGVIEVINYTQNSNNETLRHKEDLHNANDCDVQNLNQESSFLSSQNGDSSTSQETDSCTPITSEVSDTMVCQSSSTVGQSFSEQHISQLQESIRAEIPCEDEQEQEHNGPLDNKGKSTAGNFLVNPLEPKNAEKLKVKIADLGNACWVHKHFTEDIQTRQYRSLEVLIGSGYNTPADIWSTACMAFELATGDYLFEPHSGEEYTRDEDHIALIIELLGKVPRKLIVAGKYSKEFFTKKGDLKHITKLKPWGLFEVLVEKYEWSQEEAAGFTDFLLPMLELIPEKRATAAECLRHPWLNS
From the text: as §1

[14] = biological target: T1, MKK6 (Homo sapiens, UniProt P52564); test: Kinase profiling MKK6; format: biochemical; details: 100 micromolar inhibitor concentration, 100 is no change
T1 sequence (P52564 1-334): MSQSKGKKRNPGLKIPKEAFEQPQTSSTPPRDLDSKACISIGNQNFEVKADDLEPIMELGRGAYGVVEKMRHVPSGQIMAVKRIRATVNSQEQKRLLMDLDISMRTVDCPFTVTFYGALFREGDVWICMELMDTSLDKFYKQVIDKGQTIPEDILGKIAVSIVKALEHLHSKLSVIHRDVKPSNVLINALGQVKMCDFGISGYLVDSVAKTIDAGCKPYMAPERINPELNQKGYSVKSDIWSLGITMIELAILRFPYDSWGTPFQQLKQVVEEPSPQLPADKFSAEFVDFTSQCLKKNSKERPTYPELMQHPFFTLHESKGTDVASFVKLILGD
From the text: as §1

[15] = biological target: T2, TAK1 (Homo sapiens, UniProt O43318); test: Kinase profiling TAK1; format: biochemical; details: 100 micromolar inhibitor concentration, 100 is no change
T2 sequence (O43318 1-303 limits assumed): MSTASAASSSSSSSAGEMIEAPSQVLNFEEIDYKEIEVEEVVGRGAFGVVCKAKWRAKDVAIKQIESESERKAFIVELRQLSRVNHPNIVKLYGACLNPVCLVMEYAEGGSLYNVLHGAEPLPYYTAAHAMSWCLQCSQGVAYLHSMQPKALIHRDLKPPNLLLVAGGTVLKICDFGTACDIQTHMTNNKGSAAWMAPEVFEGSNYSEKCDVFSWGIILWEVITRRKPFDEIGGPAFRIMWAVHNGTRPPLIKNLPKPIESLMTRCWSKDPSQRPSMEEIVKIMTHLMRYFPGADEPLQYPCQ
T2 sequence (Q15750 437-504 partner limits assumed): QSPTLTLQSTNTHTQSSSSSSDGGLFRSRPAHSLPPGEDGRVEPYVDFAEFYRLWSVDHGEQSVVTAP
From the text: as §1

[16] = biological target: T3, PDK1 (Homo sapiens, UniProt O15530); test: Kinase profiling PDK1; format: biochemical; details: 100 micromolar inhibitor concentration, 100 is no change
T3 sequence (O15530 1-556): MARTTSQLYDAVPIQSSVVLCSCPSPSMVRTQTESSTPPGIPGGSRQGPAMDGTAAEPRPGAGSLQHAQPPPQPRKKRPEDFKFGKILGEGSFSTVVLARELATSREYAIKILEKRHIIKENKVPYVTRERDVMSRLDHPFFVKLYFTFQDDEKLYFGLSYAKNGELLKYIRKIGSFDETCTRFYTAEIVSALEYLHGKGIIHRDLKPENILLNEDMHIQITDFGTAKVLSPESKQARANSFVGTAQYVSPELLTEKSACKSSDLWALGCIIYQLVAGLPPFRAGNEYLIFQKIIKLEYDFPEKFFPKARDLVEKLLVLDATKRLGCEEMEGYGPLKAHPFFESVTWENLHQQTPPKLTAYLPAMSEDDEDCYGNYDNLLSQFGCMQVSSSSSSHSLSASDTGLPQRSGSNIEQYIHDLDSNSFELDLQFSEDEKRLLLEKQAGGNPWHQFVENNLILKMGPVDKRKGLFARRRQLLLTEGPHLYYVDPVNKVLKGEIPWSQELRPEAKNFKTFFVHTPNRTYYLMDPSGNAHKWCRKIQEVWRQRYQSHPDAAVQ
From the text: as §1

[17] = biological target: JNK2 (Homo sapiens, UniProt P45984); test: Kinase profiling JNK2; format: biochemical; details: 100 micromolar inhibitor concentration, 100 is no change
From the text: as §1

[18] = biological target: ERK2 (Homo sapiens, UniProt P28482); test: Kinase profiling ERK2; format: biochemical; details: 100 micromolar inhibitor concentration, 100 is no change
Sequence of ERK2 (P28482 whole entry, species assumed): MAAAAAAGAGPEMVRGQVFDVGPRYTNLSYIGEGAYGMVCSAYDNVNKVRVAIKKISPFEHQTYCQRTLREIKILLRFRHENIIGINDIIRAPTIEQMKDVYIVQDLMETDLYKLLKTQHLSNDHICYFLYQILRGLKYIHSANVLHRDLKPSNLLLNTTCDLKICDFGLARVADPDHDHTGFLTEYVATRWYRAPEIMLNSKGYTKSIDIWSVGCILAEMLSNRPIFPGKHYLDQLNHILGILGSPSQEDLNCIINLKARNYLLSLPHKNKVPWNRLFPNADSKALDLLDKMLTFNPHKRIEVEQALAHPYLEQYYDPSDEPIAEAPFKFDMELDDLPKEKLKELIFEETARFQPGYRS
From the text: as §1

[19] = biological target: CAMK1 (Homo sapiens, UniProt Q14012); test: Kinase profiling CAMK1; format: biochemical; details: 100 micromolar inhibitor concentration, 100 is no change
Sequence of CAMK1 (Q14012 whole entry, species assumed): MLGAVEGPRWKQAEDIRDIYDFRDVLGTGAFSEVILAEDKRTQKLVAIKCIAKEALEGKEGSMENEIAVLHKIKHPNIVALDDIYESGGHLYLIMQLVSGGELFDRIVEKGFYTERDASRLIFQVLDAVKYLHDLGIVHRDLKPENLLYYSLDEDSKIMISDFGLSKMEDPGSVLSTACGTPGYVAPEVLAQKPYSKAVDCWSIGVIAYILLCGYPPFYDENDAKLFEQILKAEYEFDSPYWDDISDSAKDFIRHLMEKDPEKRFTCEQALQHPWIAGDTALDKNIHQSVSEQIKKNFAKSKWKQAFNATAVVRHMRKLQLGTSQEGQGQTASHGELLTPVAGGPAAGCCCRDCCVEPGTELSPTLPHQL
From the text: as §1

[20] = biological target: T4, p38d MAPK (Homo sapiens, UniProt O15264); test: Kinase profiling p38d MAPK; format: biochemical; details: 100 micromolar inhibitor concentration, 100 is no change
T4 sequence (O15264 1-365): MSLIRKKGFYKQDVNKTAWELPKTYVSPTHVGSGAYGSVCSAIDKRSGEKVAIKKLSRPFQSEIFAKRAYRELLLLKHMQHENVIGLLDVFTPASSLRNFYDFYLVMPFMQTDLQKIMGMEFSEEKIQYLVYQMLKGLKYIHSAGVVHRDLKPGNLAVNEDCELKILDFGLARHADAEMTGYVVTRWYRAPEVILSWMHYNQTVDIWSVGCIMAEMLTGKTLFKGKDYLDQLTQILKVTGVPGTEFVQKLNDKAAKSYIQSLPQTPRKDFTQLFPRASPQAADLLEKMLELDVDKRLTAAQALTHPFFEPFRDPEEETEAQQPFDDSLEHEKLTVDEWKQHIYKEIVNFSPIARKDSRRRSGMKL
From the text: as §1

[21] = tested on: AMPK (hum); test: Kinase profiling AMPK (hum); format: biochemical, human; details: 100 micromolar inhibitor concentration; 100 is no change
From the text: as §1

[22] = biological target: PLK1 (Homo sapiens, UniProt P53350); test: Kinase profiling PLK1; format: biochemical; details: 100 micromolar inhibitor concentration, 100 is no change
From the text: as §1

With `CC(=O)Nc1nc2cc(C)ccc2s1` [Compound 03-76] the “residual kinase activity, HER4” value [1] was 85, the “residual kinase activity, MSK1” value [2] was 84 and the “residual kinase activity, HIPK2” value [3] was 51. For the same molecule, the “residual kinase activity, JAK2” value [4] was 51, the “residual kinase activity, PIM1” value [5] was 21 and the “residual kinase activity, NEK6” value [6] was 107. For the same molecule, the “residual kinase activity, PKCγ” value [7] was 106, the “residual kinase activity, MLK3” value [8] was 35 and the “residual kinase activity, S6K1” value [9] was 77. For the same molecule, the “residual kinase activity, JNK1” value [10] was 97, the “residual kinase activity, PKBa” value [11] was 104 and the “residual kinase activity, TrkA” value [12] was 56. For the same molecule, the “residual kinase activity, SRPK1” value [13] was 73, the “residual kinase activity, MKK6” value [14] was 113 and the “residual kinase activity, TAK1” value [15] was 52. The “residual kinase activity, PDK1” value [16] was 93, the “residual kinase activity, JNK2” value [17] was 105 and the “residual kinase activity, ERK2” value [18] was 96. The “residual kinase activity, CAMK1” value [19] was 90, the “residual kinase activity, p38d MAPK” value [20] was 85 and the “residual kinase activity, AMPK (hum)” value [21] was 69. For the same molecule, the “residual kinase activity, PLK1” value [22] was 90.
For `CC(=O)Nc1nc2cc(F)ccc2s1` [Compound 03-77], the remaining activity at 100 µM ([1]; read-out: residual kinase activity, HER4) was 92%, the remaining activity at 100 µM ([2]; read-out: residual kinase activity, MSK1) was 74% and the remaining activity at 100 µM ([3]; read-out: residual kinase activity, HIPK2) was 22%. The remaining activity at 100 µM ([4]; read-out: residual kinase activity, JAK2) was 57%, the remaining activity at 100 µM ([5]; read-out: residual kinase activity, PIM1) was 19% and the remaining activity at 100 µM ([6]; read-out: residual kinase activity, NEK6) was 96%. It also gave a remaining activity at 100 µM ([7]; read-out: residual kinase activity, PKCγ) of 102%, a remaining activity at 100 µM ([8]; read-out: residual kinase activity, MLK3) of 44% and a remaining activity at 100 µM ([9]; read-out: residual kinase activity, S6K1) of 48%. For the same molecule, the remaining activity at 100 µM ([10]; read-out: residual kinase activity, JNK1) was 80%, the remaining activity at 100 µM ([11]; read-out: residual kinase activity, PKBa) was 95% and the remaining activity at 100 µM ([12]; read-out: residual kinase activity, TrkA) was 59%. It also gave a remaining activity at 100 µM ([13]; read-out: residual kinase activity, SRPK1) of 65%, a remaining activity at 100 µM ([14]; read-out: residual kinase activity, MKK6) of 118% and a remaining activity at 100 µM ([15]; read-out: residual kinase activity, TAK1) of 46%. For the same molecule, the remaining activity at 100 µM ([16]; read-out: residual kinase activity, PDK1) was 91%, the remaining activity at 100 µM ([17]; read-out: residual kinase activity, JNK2) was 99% and the remaining activity at 100 µM ([18]; read-out: residual kinase activity, ERK2) was 99%. For the same molecule, the remaining activity at 100 µM ([19]; read-out: residual kinase activity, CAMK1) was 106%, the remaining activity at 100 µM ([20]; read-out: residual kinase activity, p38d MAPK) was 76% and the “residual kinase activity, AMPK (hum)” value [21] was 80. For the same molecule, the remaining activity at 100 µM ([22]; read-out: residual kinase activity, PLK1) was 78%.
With `O=C(Nc1nc2ccc(O)cc2s1)c1ccncc1` [Compound 08-42] the “residual kinase activity, HER4” value [1] was 40, the “residual kinase activity, MSK1” value [2] was 92 and the “residual kinase activity, HIPK2” value [3] was 23. The “residual kinase activity, JAK2” value [4] was 50, the “residual kinase activity, PIM1” value [5] was 59 and the “residual kinase activity, NEK6” value [6] was 75. For the same molecule, the “residual kinase activity, PKCγ” value [7] was 93, the “residual kinase activity, MLK3” value [8] was 30 and the “residual kinase activity, S6K1” value [9] was 38. For the same molecule, the “residual kinase activity, JNK1” value [10] was 99, the “residual kinase activity, PKBa” value [11] was 90 and the “residual kinase activity, TrkA” value [12] was 81. For the same molecule, the “residual kinase activity, SRPK1” value [13] was 19, the “residual kinase activity, MKK6” value [14] was 101 and the “residual kinase activity, TAK1” value [15] was 25. For the same molecule, the “residual kinase activity, PDK1” value [16] was 83, the “residual kinase activity, JNK2” value [17] was 90 and the “residual kinase activity, ERK2” value [18] was 73. For the same molecule, the “residual kinase activity, CAMK1” value [19] was 68, the “residual kinase activity, p38d MAPK” value [20] was 65 and the “residual kinase activity, AMPK (hum)” value [21] was 65. The “residual kinase activity, PLK1” value [22] was 74.
For `O=C(Nc1nc2ccc(O)cc2s1)c1cccnc1` [Compound 08-44], the “residual kinase activity, HER4” value [1] was 17, the “residual kinase activity, MSK1” value [2] was 49 and the “residual kinase activity, HIPK2” value [3] was 19. The “residual kinase activity, JAK2” value [4] was 30, the “residual kinase activity, PIM1” value [5] was 42 and the “residual kinase activity, NEK6” value [6] was 84. The “residual kinase activity, PKCγ” value [7] was 73, the “residual kinase activity, MLK3” value [8] was 26 and the “residual kinase activity, S6K1” value [9] was 17. For the same molecule, the “residual kinase activity, JNK1” value [10] was 102, the “residual kinase activity, PKBa” value [11] was 83 and the “residual kinase activity, TrkA” value [12] was 71. The “residual kinase activity, SRPK1” value [13] was 16, the “residual kinase activity, MKK6” value [14] was 107 and the “residual kinase activity, TAK1” value [15] was 18. The “residual kinase activity, PDK1” value [16] was 77, the “residual kinase activity, JNK2” value [17] was 90 and the “residual kinase activity, ERK2” value [18] was 75. The “residual kinase activity, CAMK1” value [19] was 42, the “residual kinase activity, p38d MAPK” value [20] was 62 and the “residual kinase activity, AMPK (hum)” value [21] was 55. The “residual kinase activity, PLK1” value [22] was 63.
